According to publication PMC8066833 (Pharmaceuticals, 2021):

Legend:
[1] = delivered intraperitoneally to treat a bacterial infection; cited from earlier work
Excerpt: Peptoid 1 [H-(NLys-Nspe-Nspe)4-NH2], designated here as MXB-1, is a 12-mer with the trimer sequence motif NLys-Nspe-Nspe repeated four times (structures of the monomers are shown in Figure 1A). It is a helical peptoid with broad-spectrum activity against a variety of pathogens, including viruses as shown here; it is also active against fungi and bacterial biofilms.

[2] = tested on: HSV-1; assay: HSV-1 inactivation: virus pre-incubated with peptoid, infection of OKF6/TERT-1 cells, HSV-1 DNA by QPCR; format: cell-based, Herpes Simplex Virus-1; conditions: for Activity against HSV-1 (screening, HSV-1 DNA by QPCR relative to β-actin): virus incubated with peptoid at 20 µg/mL for 2 h at 37 °C, then infection of OKF6/TERT-1 cells for 24 h
[3] = tested on: HSV-1-GFP; assay: Fluorescence imaging of HSV-1-GFP infection; format: cell-based, Herpes Simplex Virus-1; conditions: virus treated at 20 µg/mL for 2 h; control-treated virus showed strong fluorescence
[4] = tested on: HSV-1; assay: Electron microscopy (negative staining and cryo-EM) of peptoid-treated HSV-1; design: species or system Herpes Simplex Virus-1; conditions: HSV-1 treated 2 h at 37 °C; untreated controls 21% unenveloped capsids
Procedure: Figure 3 Transmission electron microscope imaging of peptoid-treated HSV-1 vs. controls and comparative analysis of results. Virus was treated for 2 h at 37 °C followed by preparation for EM imaging as described in Materials and Methods. (A) Negative stained EM. (B) Cryo-EM. Visible in the control samples are the viral envelope and intact capsid (both panels). In the samples treated with the peptoids we observe both disrupted envelopes (top panels) and naked capsids (bottom panels).
HSV-1 (1 × 10^8 pfu/mL) was incubated with peptoids or control medium for 2 h. at 37 °C. After incubation, the virus was fixed by addition of 2 volumes 4% glutaraldehyde/PBS, and fixed at 4 °C for 24 h. Virus was applied to grids (ultrathin carbon with lacey support film, Ted Pella, Inc.) for 1 min, followed by staining in 1% phosphotungstic acid for 1 min. Excess liquid was blotted and grids were allowed to air dry. Images were collected using a Thermo Scientific™ Talos™ F200X at 200 kV accelerating voltage with 50 μm objective aperture inserted to enhance contrast. Images were captured using a 4k × 4k CMOS camera (Thermo Scientific, Waltham, MA, USA, Ceta 16M™).
After incubation of HSV-1 virus with peptoids for 2 h. at 37 °C, samples were vitrified using Leica EM-GP2® plunger (Leica Microsystems) as previously described on carbon holey film (R2 × 1 Quantifoil®; Micro Tools GmbH, Jena, Germany) grids. […]

[5] = tested on: EpiOral cells; format: cell-based, human; conditions: 3D primary oral epithelial cultures (EpiOral), apical application for 3 h, any concentration up to 256 µg/mL, n = 3 wells per concentration
Procedure: To provide further evidence to support the development of these agents as potential therapeutics, we assayed cytotoxicity against cultured cells. To provide the optimal in vitro toxicity model, we used 3-dimensional primary cultures of oral epithelial cells (EpiOral, MatTek Life Sciences, Ashland, MA, USA), grown at an air-liquid interface. The cultures were tested in the presence of increasing concentrations of MXB-4, MXB-5 and MXB-9 for 3 h, applied to the apical surface. Viability was monitored using the MTT assay. […] Incubation with 50% ethanol led to 0% viability (not shown).
Figure 6 In vitro toxicity of peptoids. Peptoids were incubated on the apical surface of cultured EpiOral cells (n = 3 wells per concentration) for 3 h. Cell viability was quantified by MTT assay and are shown as mean percent survival +/− SD. Results shown are representative of two independent replicate experiments.
Normal human bronchial epithelial cells, obtained from MatTek (EpiAirway) were grown at an air-liquid interface at 37 °C. […] Cell viability was quantified using the CyQUANT MTT Cell Viability Assay (ThermoFisher, Waltham, MA, USA), following the manufacturer’s instructions Absorbance was read at 540 nm and percent survival was calculated relative to untreated cultures. […]

[6] = Small Angle X-ray Scattering, self-assembly in aqueous PBS buffer; format: physicochemical; conditions: unpublished data, manuscript in preparation
Excerpt: Comparing the structures of the ten peptoids on our new library with regard to antiviral activity, halogenation seems to be beneficial as every active compound (except MXB-5) includes at least two Nspe(p-Br) submonomers. […] This difference in activity potentially can be explained by differences in net molecular hydrophobicity upon halogen substitution as previously reported by Molchanova et al.. In this study they found an increasing antimicrobial activity correlating with increasing hydrophobicity, until a threshold was reached where the activity dropped. […] Further studies are needed to make definitive conclusions about these effects. We believe that a certain type and degree and stability of peptoid self-assemblies in aqueous media can be an important determinant of both activity, and selectivity. If assemblies remain intact near zwitterionic mammalian cells, but disassemble near anionic pathogenic membranes, they can be selective towards affecting pathogens while causing little to no harm to the host.

[7] = tested on: Pseudomonas aeruginosa; conditions: cited from earlier work
Excerpt: (§1) This effort led to the development of MXB-5 [H-Ntridec-NLys-Nspe-Nspe-NLys-NH2; see Figure 1 for structure), a peptoid with a 13-carbon N-terminal alkyl modification, that shares some structural similarities with MXB-1 [31]. […] In one in vivo experiment which has been presented orally online, mice were infected intratracheally with bioluminescent Pseudomonas aeruginosa, and were ...

[8] = tested on: mammalian cells; conditions: cited from earlier work
Excerpt: as §1

[9] = tested on: Pseudomonas aeruginosa biofilms; conditions: cited from earlier work

Row | Substance | Tolerability when delivered intraperitoneally [1] | Activity against HSV-1, dose-dependence ([2]; 20 µg/mL for 2 h (5 and 20 µg/mL tested), Figure 2B) | Incubation time at which inactivation of HSV-1 is seen (time course) ([2]; time course, Figure 2C) | Activity against HSV-1 (screening, HSV-1 DNA by QPCR relative to β-actin) [2] | GFP fluorescence in cells at 24 h post-infection (viral replication) [3] | Cryo-EM quantification of whole virus, disrupted envelopes and naked capsids [4] | Cytotoxicity (viability by MTT assay) [5] | Self-assembled structure in solution (SAXS) [6] | Tolerability in the lungs of the mice ([7]; intratracheal infection model) | Bacterial loads compared to untreated animals ([7]; mice, intratracheal infection with bioluminescent Pseudomonas aeruginosa) | Cytotoxicity to mammalian cells relative to MXB-1 [8] | Activity against Pseudomonas aeruginosa biofilms [9]
1 | H-(NLys-Nspe-Nspe)4-NH2 [MXB-1] | reasonably well tolerated | – | – | – | – | – | – | – | – | – | – | –
2 | H-Ntridec-NLys-Nspe-Nspe-NLys-NH2 [MXB-5] | – | strong activity | ≤ 30 min | strong activity | very weak fluorescence | large increase in both unenveloped capsids | no observable cytotoxicity | stable core-shell ellipsoidal micellar structures | well tolerated | significant reduction in bacterial loads | significantly less cytotoxic | highly active
3 | LL-37: human cathelicidin AMP, natural human host defense peptide (LLGDFFRKSKEKIGKEFKRIVQRIKDFLRNLVPRTES; Antibacterial peptide LL-37; UniProt P49913 134-170, looked up) [reference compound] | – | – | – | direct inactivation of HSV-1 | – | – | – | – | – | – | – | –
